Data taken from patent US7157487B2, “Vla-4 inhibitors” (Daiichi Pharmaceutical Co., Ltd., priority 2000, dated 2007).
Blank lines part the entries; values can stand above or below the compound they belong to.

Legend:
[1] = Pharmacokinetics and oral bioavailability in dogs; type: in vivo; conditions: 2 /kg, Dog, oral, Dose/kg 2.0, plasma; for AUC: LC/MS/MS; for bioavailability: read-out: F (%) oral bioavailability; for clearance: read-out: CLtot (mL/min/kg) apparent plasma clearance
Description: (§1) The pharmacokinetic parameter of the test compound orally administered to rats or dogs are described below.

[2] = Pharmacokinetics and oral bioavailability in rats; type: in vivo; conditions: Rat, oral, plasma; for AUC: LC/MS/MS; for bioavailability: read-out: F (%) oral bioavailability; for clearance: read-out: CLtot (mL/min/kg) apparent plasma clearance
Description: as §1

[3] = biological target: T1, integrins haα4 and β1 (VLA-4) expressed on CHO cells (Homo sapiens, UniProt P05556+P13612); experiment: In vitro Evaluation Test (1): binding of Eu3+-hVCAM-1 D1D7-IgG to CHO cells expressing integrins α4 and β1; conditions: inhibition of Eu3+-hVCAM-1 D1D7-IgG binding to CHO cells expressing α4β1; Ki calculated from IC50
T1 construct: expressed in transfected cells; host or cells: CHO cells
Procedure, shortened: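 CHO cells transduced with human α4 and β1 were grown for 2 days. They were incubated 1 h at room temperature with Eu3+-hVCAM-1 D1D7-IgG (diluted to 2 nM before addition) and compound, with or without 6% HSA, in HEPES pH 7.5 containing Ca2+, Mg2+ and 4 mM Mn2+. Time-resolved fluorescence gave IC50; Ki used a Scatchard-derived Kd (0.06–20 nM).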

[4] = Evaluation of oral bioavailability by mouse bioassay; type: in vivo; conditions: 10 mg/kg oral, female Balb/C mice, serum 15 minutes after administration, read-out: Blood level
Procedure, shortened: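 Female Balb/C mice aged 7–9 weeks received 10 mg/kg compound orally as a 1 mg/ml suspension or solution. Compound level was estimated either from a calibration curve using VCAM-1/VLA-4 inhibitory activity or by LC/MS/MS.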

[5] = tested on: VLA-4 expressed cells; conditions: literature report; cited from earlier work
[6] = tested on: cardiac transplantation of rabbits; conditions: literature report; cited from earlier work
[7] = biological target: VLA-4 (Homo sapiens, UniProt P05556+P13612); conditions: in vitro, literature report; cited from earlier work
VLA-4, sequence (P13612 34-1032): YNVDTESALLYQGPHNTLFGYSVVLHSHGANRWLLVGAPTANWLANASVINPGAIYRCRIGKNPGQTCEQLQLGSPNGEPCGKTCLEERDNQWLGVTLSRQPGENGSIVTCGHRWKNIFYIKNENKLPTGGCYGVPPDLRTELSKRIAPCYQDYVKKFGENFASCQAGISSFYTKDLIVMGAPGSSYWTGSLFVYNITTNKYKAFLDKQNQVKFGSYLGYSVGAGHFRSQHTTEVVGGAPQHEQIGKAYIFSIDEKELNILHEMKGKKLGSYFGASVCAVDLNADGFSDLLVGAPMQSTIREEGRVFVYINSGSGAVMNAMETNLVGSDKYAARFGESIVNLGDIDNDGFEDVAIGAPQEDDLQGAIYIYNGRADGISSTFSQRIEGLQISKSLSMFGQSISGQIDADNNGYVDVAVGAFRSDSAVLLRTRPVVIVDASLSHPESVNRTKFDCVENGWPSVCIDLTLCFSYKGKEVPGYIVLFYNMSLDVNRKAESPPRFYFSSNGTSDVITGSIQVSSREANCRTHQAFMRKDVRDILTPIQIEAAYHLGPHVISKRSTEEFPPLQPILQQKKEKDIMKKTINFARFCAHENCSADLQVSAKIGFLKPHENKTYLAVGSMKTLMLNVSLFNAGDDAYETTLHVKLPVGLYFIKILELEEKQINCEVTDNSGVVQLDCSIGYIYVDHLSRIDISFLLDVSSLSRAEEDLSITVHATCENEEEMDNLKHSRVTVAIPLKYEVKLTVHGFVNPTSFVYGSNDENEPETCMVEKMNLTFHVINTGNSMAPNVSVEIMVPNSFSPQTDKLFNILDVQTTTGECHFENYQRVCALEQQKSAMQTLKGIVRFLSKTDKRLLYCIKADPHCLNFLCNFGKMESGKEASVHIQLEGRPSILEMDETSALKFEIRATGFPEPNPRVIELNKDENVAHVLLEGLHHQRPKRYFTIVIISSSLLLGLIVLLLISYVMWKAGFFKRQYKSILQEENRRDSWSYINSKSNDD
VLA-4, sequence (P05556 21-798): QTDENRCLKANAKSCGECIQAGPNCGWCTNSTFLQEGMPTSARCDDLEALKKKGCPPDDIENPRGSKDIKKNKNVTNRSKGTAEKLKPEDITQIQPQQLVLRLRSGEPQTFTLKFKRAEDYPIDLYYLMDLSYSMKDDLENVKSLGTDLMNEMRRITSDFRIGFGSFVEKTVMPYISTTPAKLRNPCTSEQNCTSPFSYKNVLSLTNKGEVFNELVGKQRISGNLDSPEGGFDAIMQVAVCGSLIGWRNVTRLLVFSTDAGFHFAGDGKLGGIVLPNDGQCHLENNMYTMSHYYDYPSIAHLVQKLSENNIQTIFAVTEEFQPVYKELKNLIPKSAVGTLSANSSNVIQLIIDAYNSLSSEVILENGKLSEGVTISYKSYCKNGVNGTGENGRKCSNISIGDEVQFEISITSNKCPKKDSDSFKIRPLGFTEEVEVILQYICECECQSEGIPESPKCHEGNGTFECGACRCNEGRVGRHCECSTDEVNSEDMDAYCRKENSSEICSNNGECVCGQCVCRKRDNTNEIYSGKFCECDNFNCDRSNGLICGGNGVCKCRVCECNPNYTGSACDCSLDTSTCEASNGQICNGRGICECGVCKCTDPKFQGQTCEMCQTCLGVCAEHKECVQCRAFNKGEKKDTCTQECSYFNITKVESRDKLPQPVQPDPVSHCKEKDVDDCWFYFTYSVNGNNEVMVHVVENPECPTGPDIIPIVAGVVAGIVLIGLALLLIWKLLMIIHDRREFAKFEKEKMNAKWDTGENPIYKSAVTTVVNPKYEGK

T1 sequence (P13612 34-1032): as the sequence (P13612 34-1032) above
T1 sequence (P05556 21-798): as the sequence (P05556 21-798) above

AUC [1]: 776 ng·h/mL
bioavailability [1]: 44%
clearance [1]: 19.1 mL/min/kg
AUC ([2]; 2 /kg, Dose/kg 2.0): 152 ng·h/mL
bioavailability ([2]; 2 /kg, Dose/kg 2.0): 35%
clearance ([2]; 2 /kg, Dose/kg 2.0): 73 mL/min/kg
Compound: CO[C@H]1C[C@@H](COC2CCC(C(=O)O)CC2)N(C(=O)Cc2ccc3nc(Nc4ccccc4C)oc3c2)C1 (single isomer, unassigned) [20 (Isomer A)]

Compound: Cc1ccccc1Nc1nc2ccc(CC(=O)N3C[C@@H](F)C[C@H]3COC3CCC(C(=O)O)CC3)cc2o1 (single isomer, unassigned) [21 (Isomer H)]
AUC [1]: 760 ng·h/mL
bioavailability [1]: 40%
clearance [1]: 17.9 mL/min/kg
Ki [3]: 2.5 nM
AUC ([2]; 5 /kg, Dose/kg 5.0): 14900 ng·h/mL
bioavailability ([2]; 5 /kg, Dose/kg 5.0): 52%
clearance ([2]; 5 /kg, Dose/kg 5.0): 3.3 mL/min/kg

Ki [3]: 5 nM
concentration at 15 min [4]: 2730 ng/mL
Compound: CO[C@H]1C[C@@H](CO[C@H]2CC[C@H](C(=O)O)CC2)N(C(=O)Cc2cc(Cl)c(NC(=O)c3nsc4ccccc34)cc2F)C1 [Example 171, trans-4-(1-(5-Chloro-2-fluoro-4-((3-benzo(d)isothiazolylcarbonyl)amino)phenylacetyl)-(4S)-methoxy-(2S)-pyrrolidinylmethoxy)cyclohexanecarboxylic acid]

Ki [3]: 6.8 nM
concentration at 15 min [4]: 848 ng/mL
Compound: O=C(Nc1cc(F)c(CC(=O)N2C[C@@H](F)C[C@H]2CO[C@H]2CC[C@H](C(=O)O)CC2)cc1Cl)c1n[nH]c2ccccc12 [Example 172, trans-4-(1-((5-Chloro-2-fluoro-4-(3-indazolylcarbonylamino)phenyl)acetyl)-(4S)-fluoro-(2S)-pyrrolidinylmethoxy)cyclohexanecarboxylic acid]

Ki [3]: 10 nM
concentration at 15 min [4]: 3470 ng/mL
Compound: CC(C)[C@H]1CC[C@@H](CO[C@H]2CC[C@H](C(=O)O)CC2)N1C(=O)Cc1cc(Cl)c(NC(=O)c2cn(C)c3ccccc23)cc1F [Example 173, trans-4-(1-((5-Chloro-2-fluoro-4-((1-methyl-3-indolylcarbonyl)amino)phenyl)acetyl)-(5R)-isopropyl-(2S)-pyrrolidinylmethoxy)cyclohexanecarboxylic acid]

Compound: CQIDSPC
inhibition of adhesion of VLA-4 expressed cells to purified VCAM-1 [5]: succeeded in inhibiting adhesion

Compound: phenylacetic acid-Leu-Asp-Phe-d-Pro-amide [synthetic CS-1 tetrapeptide]
advance of coronary arterial diseases [6]: amelioration of advance of coronary arterial diseases
inhibition of leukocyte adhesion mediated by VLA-4 [7]: in vitro inhibition
